Patent publication US20250066329A1, “PIPERIDINYLPYRIDINYLCARBONITRILE DERIVATIVES AS INHIBITORS OF GLUTAMINYL-PEPTIDE CYCLOTRANSFERASE AND GLUTAMINYL-PEPTIDE CYCLOTRANSFERASE LIKE PROTEIN” (Boehringer Ingelheim International GmbH, priority 2023, published 2025)
Like-named read-outs stand apart in the source and are kept apart here.

Assays:
[1] = biological target: T1, QPCTL (Homo sapiens, UniProt Q9NXS2); assay: Assay A: biochemical QPCTL activity assay (MALDI-TOF MS, CD47 peptide substrate); details: 0.5 nM enzyme, 10 μM CD47 peptide substrate; read-out: Inhibition of QPCTL: IC50
T1 construct: made in house
T1 sequence (Q9NXS2 whole entry): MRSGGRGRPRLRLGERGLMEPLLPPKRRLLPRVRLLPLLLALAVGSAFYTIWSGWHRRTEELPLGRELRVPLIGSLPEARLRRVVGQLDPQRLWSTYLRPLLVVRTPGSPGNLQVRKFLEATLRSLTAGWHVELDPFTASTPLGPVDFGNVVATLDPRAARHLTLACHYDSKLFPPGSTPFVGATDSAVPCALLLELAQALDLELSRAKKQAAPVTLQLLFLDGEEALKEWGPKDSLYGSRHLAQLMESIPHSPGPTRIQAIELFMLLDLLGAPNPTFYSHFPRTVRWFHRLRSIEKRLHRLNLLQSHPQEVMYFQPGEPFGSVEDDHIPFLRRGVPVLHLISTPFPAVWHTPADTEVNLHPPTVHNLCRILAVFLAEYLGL
Description: (§1) QPCT or QPCTL dependent conversion of N-terminal glutamine to pyroglutamate of CD47 was monitored via MALDI-TOF MS. Test compounds were dissolved in 100% DMSO and serially diluted into clear 1,536-well microtiter plates. Enzymatic reactions were set up in assay buffer containing 20 mM Tris pH 7.5, 0.1 mM TCEP, 0.01% BSA, and 0.001% Tween20. […] The plates were incubated for 10 min in a humidified incubator at 24° C. Subsequently, 2.5 μL of CD47 peptide substrate surrogate (^19[…]^33) was added to each well (final concentration: 10 μM for QPCTL/20 μM for QPCT). The plates were mixed for 30 sec at 1,000 rpm and subsequently incubated for 40 min in a humidified incubator at 24° C. […] The plates were sealed with an adhesive foil, mixed for 30 s at 1,000 rpm and stored at room temperature until preparation of the MALDI target plates. […] QPCT or QPCTL activity was monitored by calculating the ratio between product and internal standard signals followed by normalization to high (100% activity) and low (0% activity) controls. Determination of compound potencies was obtained by fitting the dose-response data to a four-parameter logistical equation.

[2] = biological target: T2, QPCT (Homo sapiens, UniProt Q16769); assay: Assay A: biochemical QPCT activity assay (MALDI-TOF MS, CD47 peptide substrate); details: 0.5 nM enzyme, 20 μM CD47 peptide substrate; read-out: Inhibition of QPCT: IC50
T2 construct: purchased Origine (OriGene) TP700028
T2 sequence (Q16769 29-361): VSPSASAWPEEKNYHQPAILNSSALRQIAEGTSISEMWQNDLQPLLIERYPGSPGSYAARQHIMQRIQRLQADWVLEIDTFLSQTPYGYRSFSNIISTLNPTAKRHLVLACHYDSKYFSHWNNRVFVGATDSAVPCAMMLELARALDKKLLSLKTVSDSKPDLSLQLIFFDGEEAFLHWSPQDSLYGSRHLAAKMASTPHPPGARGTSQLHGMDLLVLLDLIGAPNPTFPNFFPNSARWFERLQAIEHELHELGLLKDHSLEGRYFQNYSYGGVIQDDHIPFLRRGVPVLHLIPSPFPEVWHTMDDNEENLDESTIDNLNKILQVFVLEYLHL
Description: as §1

[3] = tested on: SIRPα signalling induced by Raji cells; assay: Assay B: SIRPα signalling assay using Raji cells; format: cell-based; details: Homo sapiens, read-out: Inhibition of SIRPα signalling induced by Raji cells: IC50
Description: (§2) Two cell types are independently used: the Raji cell line (lymphoblast-like human cell line derived from B lymphocytes from a Burkitt's lymphoma patient in 1963) and A549 cells (adenocarcinomic human alveolar basal epithelial cells).
(§3) Test compounds were dissolved in 100% DMSO and serially diluted into a white 384-well microtiter cell culture plate (PerkinElmer #60076780 in case of Raji assay; PDL-coated plates Greiner #781945 in case of A549 assay). 5000 Raji cells (ATCC #CC86) or 5000 A549 cells (ATCC #CCL-185) in Assay Complete Cell Plating reagent 30 (DiscoverX 93-0563R30B) were added per well. The assay plate was incubated for 48 h at 37° C., 95% humidity and 5% CO2. 15000 reporter cells (Jurkat PathHunter SIRPαV1, DiscoverX #93-1135C19) were added to each well, and the plate was incubated for 5 h at 37° C., 95% humidity and 5% CO2. Bioassay reagent 1 of the PathHunter Bioassay detection kit (DiscoverX 93-0001) was added to each well of the plate using a multichannel pipette followed by a 15 min incubation at room temperature. Afterwards bioassay reagent 2 was added followed by 60 min incubation at room temperature (incubation in the dark). The analysis of the data was performed using the luminescence signal generated by beta-galactosidase in the PathHunter reporter cell line. The luminescence measurement was done using a Pherastar Multi-Mode Reader. Dose-response curves & IC50 data were calculated with 4-parameter sigmoidal dose response formula.

[4] = tested on: SIRPα signalling induced by A549 cells; assay: Assay B: SIRPα signalling assay using A549 cells; format: cell-based; details: Homo sapiens, read-out: Inhibition of SIRPα signalling induced by A549 cells: IC50
Description: as §2, §3

[5] = Assay C: permeability in CACO-2 cells; format: in vitro ADME; details: human, pH 7.2; for efflux ratio at 2 h: Caco-2, permeability B-A/permeability A-B; for Papp A→B at 2 h: Caco-2, apical to basolateral
Description: Caco-2 cells (1-2×10^5 cells/1 cm^2 area) are seeded on filter inserts (Costar transwell polycarbonate or PET filters, 0.4 µm pore size) and cultured (DMEM) for 10 to 25 days. Compounds are dissolved in appropriate solvent (like DMSO, 1-20 mM stock solutions). […] The transport solution (TL) is applied to the apical or basolateral donor side for measuring A-B or B-A permeability (3 filter replicates), respectively. Samples are collected at the start and end of experiment from the donor and at various time intervals for up to 2 hours also from the receiver side for concentration measurement by HPLC-MS/MS or scintillation counting. Sampled receiver volumes are replaced with fresh receiver solution.
Efflux ratio (ER)=permeability B-A/permeability A-B

[6] = Raji cells, 48 h compound incubation, PathHunter SIRPαV1 reporter cells
[7] = A549 cells, 48 h compound incubation, PathHunter SIRPαV1 reporter cells

Row | IC50 [1] | IC50 [2] | IC50 [3, 6] | IC50 [4, 7] | efflux ratio at 2 h [5] | Papp A→B at 2 h [5] | Structure (SMILES) | IC50 ([3]; Raji, 48 h) | IC50 ([4]; A549, 48 h)
1 | 52 nM | 482 nM | 2740 nM | 921 nM | 0.8 | 93 ×10⁻⁶ cm/s | Cc1cnnn1C1CCN(c2ncccc2-c2ccc(F)nc2)CC1 [Example 3] |  | 
2 | 6 nM | 74 nM | 925 nM |  | 4.6 | 15 ×10⁻⁶ cm/s | C[C@H]1C[C@H](c2nncn2C)CCN1c1c(C#N)cc(C(F)(F)F)nc1-c1ccc(F)nc1 [Example 4, 6′-fluoro-3-[(2S,4R)-2-methyl-4-(4-methyl-4H-1,2,4-triazol-3-yl)piperidin-1-yl]-6-(trifluoromethyl)-[2,3′-bipyridine]-4-carbonitrile] |  | 
3 | 2 nM | 3 nM | 540 nM | 551 nM | 8.4 | 0.2 ×10⁻⁶ cm/s | C[C@H]1C[C@H](c2nncn2C)CCN1c1c(C#N)ccnc1-c1ccnnc1 [Example 6, 3-[(2S,4R)-2-methyl-4-(4-methyl-4H-1,2,4-triazol-3-yl)piperidin-1-yl]-2-(pyridazin-4-yl)pyridine-4-carbonitrile] |  | 
4 | 1 nM | 2 nM | 48 nM | 57 nM | 5 | 3.6 ×10⁻⁶ cm/s | C[C@H]1C[C@H](c2nncn2C)CCN1c1c(C#N)ccnc1-c1ccc(F)nc1 [Example 5, 6′-fluoro-3-[(2S,4R)-2-methyl-4-(4-methyl-4H-1,2,4-triazol-3-yl)piperidin-1-yl]-[2,3′-bipyridine]-4-carbonitrile] |  | 
5 | 14 nM | 24 nM | 837 nM | 486 nM | 9.4 | 3.3 ×10⁻⁶ cm/s | C[C@@H]1C[C@](F)(c2nncn2C)CCN1c1c(C#N)cc(C(F)(F)F)nc1-c1ccnnc1 [Example 15] |  | 
6 | 2 nM | 2 nM | 66 nM | 41 nM | 6.1 | 13 ×10⁻⁶ cm/s | Cn1cnnc1[C@@H]1CCN(c2c(C#N)cc(C(F)(F)F)nc2-c2ccc(F)nc2)[C@@H](C2CC2)C1 (racemic) [Example 2, (rac)-3-[trans-2-cyclopropyl-4-(4-methyl-4H-1,2,4-triazol-3-yl)piperidin-1-yl]-6′-fluoro-6-(trifluoromethyl)-[2,3′-bipyridine]-4-carbonitrile] |  | 
7 | 1 nM | 6 nM | 47 nM | 47 nM | 3.3 | 22 ×10⁻⁶ cm/s | Cn1cnnc1[C@@H]1CCN(c2c(C#N)cc(C(F)(F)F)nc2-c2ccc(F)nc2)[C@H](C2CC2)C1 [Example 8] |  | 
8 |  |  |  |  |  |  | Cn1cnnc1C1CCN(c2ncccc2-c2ccc(F)nc2)CC1 [SEN177, reference compound] | 1360 nM | 214 nM
9 | 3 nM | 13 nM | 246 nM | 86 nM | 10.4 | 5.1 ×10⁻⁶ cm/s | Cn1cnnc1C1CCN(c2c(C#N)cc(C(F)(F)F)nc2-c2ccc(F)nc2)C2(CC2)C1 (racemic) [Example 17] |  | 
10 | 1 nM | 1 nM | 9 nM | 12 nM | 23.5 | 2 ×10⁻⁶ cm/s | Cn1cnnc1[C@@H]1CCN(c2c(C#N)cc(C(F)(F)F)nc2-c2cnc3nn(C(C)(C)C)cc3c2)[C@H](C2CC2)C1 [Example 7, 2-{2-tert-butyl-2H-pyrazolo[3,4-b]pyridin-5-yl}-3-[(2S,4R)-2-cyclopropyl-4-(4-methyl-4H-1,2,4-triazol-3-yl)piperidin-1-yl]-6-(trifluoromethyl)pyridine-4-carbonitrile] |  | 
11 | 1 nM | 2 nM | 27 nM | 27 nM | 4.4 | 17 ×10⁻⁶ cm/s | Cn1cnnc1[C@@H]1CCN(c2c(C#N)cc(C(F)(F)F)nc2-c2ccc(F)nc2)[C@@H](C2CC2)C1 [Example 1, 3-[(2R,4R)-2-cyclopropyl-4-(4-methyl-4H-1,2,4-triazol-3-yl)piperidin-1-yl]-6′-fluoro-6-(trifluoromethyl)-[2,3′-bipyridine]-4-carbonitrile] |  | 
12 | 18 nM | 50 nM | 325 nM | 109 nM | 3.8 | 22 ×10⁻⁶ cm/s | CC[C@@H]1C[C@H](c2nncn2C)CCN1c1c(C#N)cc(C(F)(F)F)nc1-c1ccc(F)nc1 [Example 9] |  | 
13 | 7 nM | 5 nM | 124 nM | 74 nM | 7.1 | 9.2 ×10⁻⁶ cm/s | C[C@@H]1C[C@](F)(c2nncn2C)CCN1c1c(C#N)cc(C(F)(F)F)nc1-c1cnc2nn(C(C)(C)C)cc2c1 [Example 16] |  | 
14 | 10 nM | 23 nM | 1100 nM | 111 nM | 5.8 | 7.8 ×10⁻⁶ cm/s | C[C@@H]1C[C@H](c2nncn2C)CCN1c1c(C#N)cc(C(F)(F)F)nc1-c1ccc(F)nc1 [Example 10, 6′-fluoro-3-[(2R,4R)-2-methyl-4-(4-methyl-4H-1,2,4-triazol-3-yl)piperidin-1-yl]-6-(trifluoromethyl)-[2,3′-bipyridine]-4-carbonitrile] |  | 
15 | 16 nM | 24 nM | 621 nM | 232 nM | 1.2 | 58 ×10⁻⁶ cm/s | C[C@@H]1C[C@](F)(c2nncn2C)CCN1c1c(C#N)cc(C(F)(F)F)nc1-c1ccc(F)nc1 [Example 14] |  | 
16 | 1 nM | 1 nM | 11 nM | 11 nM | 39.1 | 1.1 ×10⁻⁶ cm/s | Cn1cnnc1[C@@H]1CCN(c2c(C#N)cc(C(F)(F)F)nc2-c2cnc3nn(C(C)(C)C)cc3c2)[C@@H](C2CC2)C1 (racemic) [Example 3] |  | 
17 | 3 nM | 27 nM | 89 nM |  |  |  | C[C@@H]1C[C@H](c2nncn2C)CCN1c1c(C#N)ccnc1-c1ccc(F)nc1 (racemic) [Example 11] |  | 
18 | 6 nM | 14 nM | 301 nM | 236 nM | 2.4 | 22 ×10⁻⁶ cm/s | C[C@@H]1C[C@](F)(c2nncn2C)CCN1c1c(C#N)ccnc1-c1ccc(F)nc1 [Example 13] |  | 
